US8648038B2, “(2-aryloxyacetylamino)phenylpropionic acid derivatives, processes for preparation thereof and use thereof as medicaments” (Sanofi, priority 2010, dated 2014)

Molecular target: T1, GPR40 (Rattus norvegicus, UniProt Q8K3T4)
T1 construct: expressed in transfected cells; host or cells: HEK293
Experiment: In vitro FLIPR assay with recombinant HEK293 cells which express the GPCR GPR40 (intracellular Ca2+)
Format: cell-based
Conditions: recombinant HEK293 cells expressing GPR40; Fluo-4 Ca2+ signal; 100% = 10 μM linoleic acid
Method: In Vitro FLIPR Assay with Recombinant Cells which Express the GPCR GPR40
Function-testing assays were performed by means of the FLIPR technique (“Fluorescence Imaging Plate Reader”, Molecular Devices Corp.). For this purpose, agonist-induced changes were determined in the intracellular concentration of Ca^2+ in recombinant HEK293 cells which expressed the GPCR GPR40.
For the studies, cells were sown into 96-well microtiter plates (60 000 cells/well) and left to grow overnight. The medium was removed and the cells were incubated in buffer which contains the fluorescent dye Fluo-4. After this loading with dye, the cells were washed, test substance was added and changes were measured in the intracellular Ca^2+ concentration in the FLIPR instrument. Results were presented as the percentage change relative to the control (0%: no test substance added; 100%: 10 μM reference agonist linoleic acid added) and used to calculate dose/effect curves, and EC50 values were determined.

T1 sequence (Q8K3T4 whole entry): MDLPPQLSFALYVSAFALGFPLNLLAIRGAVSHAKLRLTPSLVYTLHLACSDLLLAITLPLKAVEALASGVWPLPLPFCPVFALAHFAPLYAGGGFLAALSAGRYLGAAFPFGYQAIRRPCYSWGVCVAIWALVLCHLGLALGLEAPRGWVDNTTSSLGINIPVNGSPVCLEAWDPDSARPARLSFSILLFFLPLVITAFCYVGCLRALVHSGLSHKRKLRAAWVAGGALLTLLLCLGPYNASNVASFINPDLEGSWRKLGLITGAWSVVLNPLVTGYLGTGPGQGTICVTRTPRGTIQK

## COC(CC(=O)O)c1ccc(NC(=O)C(C)Oc2cc(C(C)C)ccc2C)cc1 (stereo not drawn) [Example 39]
  EC50: 5.08 µM

## CC#CC(CC(=O)O)c1ccc(NC(=O)C(C)Oc2cccc(C(C)C)c2)cc1 (stereo not drawn) [Example 6, 3-{4-[2-(3-Isopropylphenoxy)propionylamino]phenyl}hex-4-ynoic acid]
  EC50: 0.071 µM

## COC(CC(=O)O)c1ccc(NC(=O)C(C)(C)Oc2ccc(Cl)cc2Cl)cc1 (stereo not drawn) [Example 43]
  EC50: 20.8 µM

## CC#CC(CC(=O)O)c1ccc(NC(=O)C(C)(C)Oc2cccc(C(C)C)c2)cc1 (stereo not drawn) [Example 16]
  EC50: 0.187 µM

## COC(CC(=O)O)c1ccc(NC(=O)C(C)(C)Oc2cccc(C(C)C)c2)cc1 (stereo not drawn) [Example 47]
  EC50: 1.16 µM

## COC(CC(=O)O)c1ccc(NC(=O)C(C)Oc2cc(C)ccc2C(C)C)cc1 (stereo not drawn) [Example 40, 3-{4-[2-(2-Isopropyl-5-methylphenoxy)propionylamino]phenyl}-3-methoxypropionic Acid]
  EC50: 2.13 µM

## COC(CC(=O)O)c1ccc(NC(=O)C(C)Oc2cccc(C(C)(C)C)c2)cc1 (stereo not drawn) [Example 42]
  EC50: 10.7 µM

## CC#CC(CC(=O)O)c1ccc(NC(=O)C(C)Oc2cc(C)ccc2C(C)C)cc1 (stereo not drawn) [Example 4]
  EC50: 0.094 µM

## CC#CC(CC(=O)O)c1ccc(NC(=O)C(C)Oc2cc(C(C)C)ccc2C)cc1 (stereo not drawn) [Example 5]
  EC50: 0.176 µM

## CC#CC(CC(=O)O)c1ccc(NC(=O)C(Oc2ccc(C(C)C)cc2Br)C(C)C)cc1 (stereo not drawn) [Example 9]
  EC50: 0.553 µM

## CC#CC(CC(=O)O)c1ccc(NC(=O)C(C)(C)Oc2ccc(C(C)(C)C)cc2Br)cc1 (stereo not drawn) [Example 22]
  EC50: 4.46 µM

## CC#CC(CC(=O)O)c1ccc(NC(=O)C(C)(C)Oc2ccc(C(C)C)cc2Br)cc1 (stereo not drawn) [Example 8]
  EC50: 1.14 µM
